# Legend:
# full-length ATR = molecular target: T1, full-length ATR (Homo sapiens, UniProt Q13535); assay: ATR Inhibition Assay (radioactive-phosphate incorporation); assay type: biochemical
# T1 construct: Assays were carried out at 25° C. in the presence of 5 nM full-length ATR
# Experimental: Compounds were screened for their ability to inhibit ATR kinase using a radioactive-phosphate incorporation assay. Assays were carried out in a mixture of 50 mM Tris/HCl (pH 7.5), 10 mM MgCl2 and 1 mM DTT. Final substrate concentrations were 10 μM [γ-33P]ATP (3mCi 33P ATP/mmol ATP, Perkin Elmer) and 800 μM target peptide ([…] (SEQ ID NO: 1)).
# Assays were carried out at 25° C. in the presence of 5 nM full-length ATR. An assay stock buffer solution was prepared containing all of the reagents listed above, with the exception of ATP and the test compound of interest. 13.5 μL of the stock solution was placed in a 96 well plate followed by addition of 2 μL of DMSO stock containing serial dilutions of the test compound (typically starting from a final concentration of 15 μM with 3-fold serial dilutions) in duplicate (final DMSO concentration 7%). The plate was pre-incubated for 10 minutes at 25° C. and the reaction initiated by addition of 15 μL [γ-33P]ATP (final concentration 10 μM).
# The reaction was stopped after […] by the addition of 30 μL 0.1M phosphoric acid containing 2 mM ATP. A multiscreen phosphocellulose filter 96-well plate (Millipore, Cat no. MAPHN0B50) was pretreated with 100 μL 0.2M phosphoric acid prior to the addition of 45 μL of the stopped assay mixture. The plate was washed with 5×200 μL 0.2M phosphoric acid. After drying, 100 μL Optiphase ‘SuperMix’ liquid scintillation cocktail (Perkin Elmer) was added to the well prior to scintillation counting (1450 Microbeta Liquid Scintillation Counter, Wallac).
# After removing mean background values for all of the data points, Ki(app) data were calculated from non-linear regression analysis of the initial rate data using the Prism software package (GraphPad Prism version 3.0cx for Macintosh, GraphPad Software, San Diego Calif., USA).
# Below is a chart showing the ATR Inhibition Ki values of compounds of the disclosure.
# [1] = tested on: HCT116 colorectal cancer cells; assay: Cisplatin Sensitization Assay (96 h cell viability MTS); assay type: cell-based; details: concentration of compound required to reduce the IC50 of Cisplatin alone by at least 3-fold, 96 h MTS
# Experimental: Compounds can be screened for their ability to sensitize HCT116 colorectal cancer cells to Cisplatin using a 96 h cell viability (MTS) assay. […] Compounds and Cisplatin are then both added simultaneously to the cell media in 2-fold serial dilutions from a top final concentration of 10 μM as a full matrix of concentrations in a final cell volume of 200 μl, and the cells are then incubated at 37° C. in 5% CO2. After 96 h, 40 μl of MTS reagent (Promega G358a) is added to each well and the cells are incubated for 1 h at 37° C. in 5% CO2.
# T1 sequence (Q13535 whole entry): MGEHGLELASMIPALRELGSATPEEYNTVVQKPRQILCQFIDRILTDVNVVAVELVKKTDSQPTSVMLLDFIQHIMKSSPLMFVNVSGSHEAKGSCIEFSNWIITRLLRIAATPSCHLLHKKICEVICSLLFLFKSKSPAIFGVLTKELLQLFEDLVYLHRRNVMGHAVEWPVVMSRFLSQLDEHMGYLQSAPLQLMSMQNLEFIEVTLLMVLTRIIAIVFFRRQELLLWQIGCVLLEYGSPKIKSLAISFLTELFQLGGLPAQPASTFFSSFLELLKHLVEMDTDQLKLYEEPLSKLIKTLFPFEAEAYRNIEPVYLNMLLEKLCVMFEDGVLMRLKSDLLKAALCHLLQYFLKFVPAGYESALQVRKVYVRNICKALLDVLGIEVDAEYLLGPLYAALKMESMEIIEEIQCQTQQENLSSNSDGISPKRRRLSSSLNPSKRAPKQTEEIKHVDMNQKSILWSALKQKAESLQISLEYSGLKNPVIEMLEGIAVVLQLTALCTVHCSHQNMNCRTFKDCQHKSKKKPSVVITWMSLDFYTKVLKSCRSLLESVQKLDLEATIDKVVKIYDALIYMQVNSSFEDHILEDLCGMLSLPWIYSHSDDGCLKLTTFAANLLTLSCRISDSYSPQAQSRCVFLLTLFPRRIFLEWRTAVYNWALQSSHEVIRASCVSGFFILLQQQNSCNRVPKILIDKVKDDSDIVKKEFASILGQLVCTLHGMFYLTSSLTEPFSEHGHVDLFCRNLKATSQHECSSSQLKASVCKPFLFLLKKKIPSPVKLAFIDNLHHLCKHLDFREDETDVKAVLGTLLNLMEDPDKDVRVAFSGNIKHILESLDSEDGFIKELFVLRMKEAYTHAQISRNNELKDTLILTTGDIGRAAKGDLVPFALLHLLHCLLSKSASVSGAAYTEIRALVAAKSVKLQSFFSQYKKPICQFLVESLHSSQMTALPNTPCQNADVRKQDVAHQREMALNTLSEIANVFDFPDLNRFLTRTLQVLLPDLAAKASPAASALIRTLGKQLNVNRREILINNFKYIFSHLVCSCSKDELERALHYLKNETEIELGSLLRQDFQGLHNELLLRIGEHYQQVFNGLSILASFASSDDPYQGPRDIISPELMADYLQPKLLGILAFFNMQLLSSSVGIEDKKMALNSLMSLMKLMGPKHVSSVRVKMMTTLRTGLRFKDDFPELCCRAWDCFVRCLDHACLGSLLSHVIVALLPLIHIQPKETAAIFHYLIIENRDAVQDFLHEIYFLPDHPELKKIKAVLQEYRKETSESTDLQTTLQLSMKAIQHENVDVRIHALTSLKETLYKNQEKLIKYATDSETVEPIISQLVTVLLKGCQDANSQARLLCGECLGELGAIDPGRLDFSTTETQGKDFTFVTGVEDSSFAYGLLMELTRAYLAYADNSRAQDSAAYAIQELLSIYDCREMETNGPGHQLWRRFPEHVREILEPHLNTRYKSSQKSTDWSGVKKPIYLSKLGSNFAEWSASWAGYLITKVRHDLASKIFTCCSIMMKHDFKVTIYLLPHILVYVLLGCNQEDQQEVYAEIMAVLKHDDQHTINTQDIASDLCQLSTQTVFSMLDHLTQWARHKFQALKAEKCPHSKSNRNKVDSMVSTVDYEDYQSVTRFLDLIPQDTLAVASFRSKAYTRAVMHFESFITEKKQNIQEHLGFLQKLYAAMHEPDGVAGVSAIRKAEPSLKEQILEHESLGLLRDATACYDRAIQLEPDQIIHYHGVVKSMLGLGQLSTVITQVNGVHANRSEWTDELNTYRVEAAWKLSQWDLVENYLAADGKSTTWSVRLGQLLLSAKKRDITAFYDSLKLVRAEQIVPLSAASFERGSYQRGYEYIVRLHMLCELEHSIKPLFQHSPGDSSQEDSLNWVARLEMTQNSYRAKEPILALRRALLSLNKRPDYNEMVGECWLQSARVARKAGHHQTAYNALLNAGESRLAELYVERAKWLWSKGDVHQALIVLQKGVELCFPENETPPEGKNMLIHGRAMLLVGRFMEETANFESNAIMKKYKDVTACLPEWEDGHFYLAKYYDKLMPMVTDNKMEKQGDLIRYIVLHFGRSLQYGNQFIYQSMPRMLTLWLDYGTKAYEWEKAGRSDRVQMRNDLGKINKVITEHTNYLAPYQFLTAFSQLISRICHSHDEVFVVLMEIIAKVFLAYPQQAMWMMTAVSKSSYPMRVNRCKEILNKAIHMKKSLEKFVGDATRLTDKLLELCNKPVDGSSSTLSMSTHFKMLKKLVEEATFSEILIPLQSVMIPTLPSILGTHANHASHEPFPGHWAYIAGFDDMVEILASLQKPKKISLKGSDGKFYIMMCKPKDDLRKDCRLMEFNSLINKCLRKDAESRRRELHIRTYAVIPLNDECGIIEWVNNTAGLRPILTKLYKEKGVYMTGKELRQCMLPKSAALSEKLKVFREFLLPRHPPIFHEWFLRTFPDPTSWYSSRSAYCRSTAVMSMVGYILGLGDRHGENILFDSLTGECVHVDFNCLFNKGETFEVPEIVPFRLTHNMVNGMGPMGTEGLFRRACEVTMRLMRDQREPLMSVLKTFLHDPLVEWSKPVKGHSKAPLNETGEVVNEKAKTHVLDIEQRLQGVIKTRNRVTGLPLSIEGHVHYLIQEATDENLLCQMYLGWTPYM
Structure (SMILES),Ki (full-length ATR),CP3 Shift [1]
"CNCc1ccc(-c2nnc(-c3cc(-c4ccc(S(=O)(=O)[C@@H]5CCOC5)cc4)cnc3N)o2)cc1 [III-1, 3-[5-[4-(Methylaminomethyl)phenyl]-1,3,4-oxadiazol-2-yl]-5-[4-[(3R)-tetrahydrofuran-3-yl]sulfonylphenyl]pyridin-2-amine]",≤ 10 nM,
"Nc1ncc(-c2ccc(C(=O)N3CCCNCC3)cc2)cc1-c1nnc(-c2ccccc2)o1 [III-2, [4-[6-Amino-5-(5-phenyl-1,3,4-oxadiazol-2-yl)-3-pyridyl]phenyl]-(1,4-diazepan-1-yl)methanone]",10 to 100 nM,
"CS(=O)(=O)c1ccc(-c2cnc(N)c(-c3nnc(-c4ccccc4)o3)c2)cc1 [III-3, 5-(4-(Methylsulfonyl)phenyl)-3-(5-phenyl-1,3,4-oxadiazol-2-yl)pyridin-2-amine]",10 to 100 nM,
"CCS(=O)(=O)N1CC=C(c2cnc(N)c(-c3nnc(-c4ccccc4)o3)c2)CC1 [III-4, 5-(1-Ethylsulfonyl-3,6-dihydro-2H-pyridin-4-yl)-3-(5-phenyl-1,3,4-oxadiazol-2-yl)pyridin-2-amine]",10 to 100 nM,
"CNCc1ccc(-c2nnc(-c3cc(-c4cnc(S(=O)(=O)C(C)C)cn4)cnc3N)o2)cc1 [III-5, 5-(5-Isopropylsulfonylpyrazin-2-yl)-3-[5-[4-(methylaminomethyl)phenyl]-1,3,4-oxadiazol-2-yl]pyridin-2-amine]",≤ 10 nM,
"Cc1ccc(-c2cc(-c3cc(-c4ccc(S(=O)(=O)C(C)C)cn4)cnc3N)on2)cc1 [III-6, 5-(5-Isopropylsulfonyl-2-pyridyl)-3-[3-(p-tolyl)isoxazol-5-yl]pyridin-2-amine]",10 to 100 nM,
"Nc1ncc(-c2cccnc2)cc1C(=O)Nc1ccccc1 [III-7, 2-Amino-N-phenyl-5-(3-pyridyl)pyridine-3-carboxamide]",100 to 5000 nM,
"CNCc1ccc(-c2cc(-c3cc(-c4ccc(S(=O)(=O)C(C)C)cn4)cnc3N)on2)c(F)c1 [III-8, 3-[3-[2-Fluoro-4-(methylaminomethyl)phenyl]isoxazol-5-yl]-5-(5-isopropylsulfonyl-2-pyridyl)pyridin-2-amine]",≤ 10 nM,.234 µM
"CNCc1ccc(-c2nnc(-c3cc(-c4ccsc4)cnc3N)o2)cc1 [III-9, 3-[5-[4-(Methylaminomethyl)phenyl]-1,3,4-oxadiazol-2-yl]-5-(3-thienyl)pyridin-2-amine]",10 to 100 nM,
"CNCc1ccc(-c2nnc(-c3cc(-c4ccc(S(=O)(=O)C(C)C)cn4)cnc3N)o2)cc1 [III-10, 5-(5-Isopropylsulfonyl-2-pyridyl)-3-[5-[4-(methylaminomethyl)phenyl]-1,3,4-oxadiazol-2-yl]pyridin-2-amine]",≤ 10 nM,.078 µM
"CNCc1ccc(-c2nnc(-c3cc(-c4ccc(S(=O)(=O)C(C)C)cc4)cnc3N)o2)cc1 [III-11, 5-(4-Isopropylsulfonylphenyl)-3-[5-[4-(methylaminomethyl)phenyl]-1,3,4-oxadiazol-2-yl]pyridin-2-amine]",≤ 10 nM,.156 µM
"CNCc1ccc(-c2cc(-c3cc(-c4ccc(S(=O)(=O)C(C)C)cn4)cnc3N)on2)cc1 [III-12, 5-(5-Isopropylsulfonyl-2-pyridyl)-3-[3-[4-(methylaminomethyl)phenyl]isoxazol-5-yl]pyridin-2-amine]",≤ 10 nM,.156 µM

# From US9096584B2, “Compounds useful as inhibitors of ATR kinase” (Vertex Pharmaceuticals Incorporated, priority 2010, dated 2015)
